Test system: IgE antibodies from patients
Assay: Wheat epitope mapping (2): overlapping 10-amino-acid peptide fragments shifted by one amino acid;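 as to Rank of partial sequence as epitope binding to IgE antibody: key = sequence deemed particularly important within the common 15-residue sequence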;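 as to epitope sequence binding to IgE antibody, rank (Key/Preferably/More preferably): key of grades: preferably = shorter partial sequence still acting as epitope; more preferably = sequence improving IgE binding; key = particularly important sequence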
Type: binding, human
In short: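 Cellulose-bound 10-mer peptides offset by one residue were probed with patient serum IgE and detected by chemiluminescence. Secondary-antibody-only signals were subtracted per peptide. Residual binding was expressed as % of the parent overlapping peptide, scored as none (<30%), poor (30–<50%), somewhat poor (50–<70%) or retained (≥70%).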

[1] = serum of patient P50 (child, general immediate type allergy to wheat), sequence without X
[2] = serum of patient P33 (WDEIA), sequence without X
[3] = serum of patient P10 (WDEIA), partial sequence
[4] = serum of patient P35 (WDEIA), sequence without X
[5] = serum of patient P32 (WDEIA), sequence without X
[6] = serum of patient P34 (WDEIA), sequence without X
[7] = serum of patient G7 (adult, general immediate type allergy to wheat), partial sequence

Substance: 2406 (TEIVL; REGION 1..5: note = epitope) [compound 2406]
- Epitope sequence binding to IgE antibody, rank of the sequence (Key/Preferably/More preferably/Further preferably) [1]: Preferably

Substance: 2566 (YQLVQQLCC; REGION 1..9: note = epitope) [compound 2566]
- Epitope sequence binding to IgE antibody, rank of the sequence (serum of patient P25 (WDEIA), partial sequence): Key

Substance: 1702 (SQVIIM; REGION 1..6: note = epitope) [compound 1702]
- Rank of partial sequence as epitope binding to IgE antibody (serum of patient P25 (WDEIA), sequence without X): Key

Substance: 1256 (PQQPP; REGION 1..5: note = epitope) [compound 1256]
- Epitope sequence binding to IgE antibody, rank of the sequence (serum of patient P36 (WDEIA), sequence without X): Key

Substance: 1480 (YLQPQQPIS; REGION 1..9: note = epitope) [compound 1480]
- Rank of partial sequence as epitope binding to IgE antibody [2]: Key

Substance: 1902 (QQFPGQQ; REGION 1..7: note = epitope) [compound 1902]
- epitope sequence binding to IgE antibody, rank (Key/Preferably/More preferably) (serum of patient P3 (WDEIA)): Key

Substance: 2695 (YKGPTL; REGION 1..6: note = epitope) [compound 2695]
- Epitope sequence binding to IgE antibody, rank of the sequence (serum of patient P36 (WDEIA), partial sequence): Key

Substance: 1746 (EAANFTS; REGION 1..7: note = epitope) [compound 1746]
- epitope sequence binding to IgE antibody, rank (Key/Preferably/More preferably) (serum of patient G5 (adult, general immediate type allergy to wheat)): Preferably

Substance: 2745 (KIGGIG; REGION 1..6: note = epitope) [compound 2745]
- Epitope sequence binding to IgE antibody, rank of the sequence (serum of patient P34 (WDEIA), partial sequence): Preferably

Substance: 1872 (YTVRTLQRT; REGION 1..9: note = epitope) [compound 1872]
- epitope sequence binding to IgE antibody, rank (Key/Preferably/More preferably) (serum of patient P30 (WDEIA)): Preferably

Substance: 1909 (VPLVQ; REGION 1..5: note = epitope) [compound 1909]
- epitope sequence binding to IgE antibody, rank (Key/Preferably/More preferably) (serum of patient P7 (WDEIA)): Key

Substance: 1951 (QFPGQQQ; REGION 1..7: note = epitope) [compound 1951]
- epitope sequence binding to IgE antibody, rank (Key/Preferably/More preferably) (serum of patient P24 (WDEIA)): Preferably

Substance: 2663 (FEKEAA; REGION 1..6: note = epitope) [compound 2663]
- Epitope sequence binding to IgE antibody, rank of the sequence (serum of patient P50 (child, general immediate type allergy to wheat), partial sequence): Preferably

Substance: 1806 (ELEALPK; REGION 1..7: note = epitope) [compound 1806]
- epitope sequence binding to IgE antibody, rank (Key/Preferably/More preferably) (serum of patient P22 (WDEIA)): Key

Substance: 2638 (EAAE; REGION 1..4: note = epitope) [compound 2638]
- Epitope sequence binding to IgE antibody, rank of the sequence [3]: Key

Substance: 1528 (QVPLVQQ; REGION 1..7: note = epitope) [compound 1528]
- Rank of partial sequence as epitope binding to IgE antibody (serum of patient P12 (WDEIA), sequence without X): Preferably

Substance: 1643 (PDKVPFVPIS; REGION 1..10: note = epitope) [compound 1643]
- Rank of partial sequence as epitope binding to IgE antibody [4]: Key

Substance: 1282 (LPRS; REGION 1..4: note = epitope) [compound 1282]
- Epitope sequence binding to IgE antibody, rank of the sequence [2]: Key

Substance: 2226 (RNYR; REGION 1..4: note = epitope) [compound 2226]
- Epitope sequence binding to IgE antibody, rank of the sequence (Key/Preferably/More preferably) (serum of patient P17 (WDEIA), sequence without X): Key

Substance: 2740 (KIGGI; REGION 1..5: note = epitope) [compound 2740]
- Epitope sequence binding to IgE antibody, rank of the sequence (serum of patient P31 (WDEIA), partial sequence): Key

Substance: 1613 (YNPD; REGION 1..4: note = epitope) [compound 1613]
- Rank of partial sequence as epitope binding to IgE antibody (serum of patient P15 (WDEIA), sequence without X): Key

Substance: 2235 (SRLLRGIRN; REGION 1..9: note = epitope) [compound 2235]
- Epitope sequence binding to IgE antibody, rank of the sequence (Key/Preferably/More preferably) (serum of patient P30 (WDEIA), sequence without X): Key

Substance: 1590 (QPFPQTQQPQ; REGION 1..10: note = epitope) [compound 1590]
- Rank of partial sequence as epitope binding to IgE antibody [1]: Preferably

Substance: 2242 (IRNYRVAI; REGION 1..8: note = epitope) [compound 2242]
- Epitope sequence binding to IgE antibody, rank of the sequence (Key/Preferably/More preferably) [4]: Key

Substance: 1687 (EAANFT; REGION 1..6: note = epitope) [compound 1687]
- Rank of partial sequence as epitope binding to IgE antibody (serum of patient P5 (WDEIA), sequence without X): Key

Substance: 1229 (PIQQQP; REGION 1..6: note = epitope) [compound 1229]
- Epitope sequence binding to IgE antibody, rank of the sequence (serum of patient P13 (WDEIA), sequence without X): Preferably

Substance: 1422 (YLQPQQ; REGION 1..6: note = epitope) [compound 1422]
- Epitope sequence binding to IgE antibody, rank of the sequence (serum of patient P10 (WDEIA), sequence without X): Preferably

Substance: 1939 (QVPLVQQ; REGION 1..7: note = epitope) [compound 1939]
- epitope sequence binding to IgE antibody, rank (Key/Preferably/More preferably) (serum of patient P21 (WDEIA)): Preferably

Substance: 1316 (VEDNRRALR; REGION 1..9: note = epitope) [compound 1316]
- Epitope sequence binding to IgE antibody, rank of the sequence (serum of patient P14 (WDEIA), sequence without X): Key

Substance: 1814 (KELEAL; REGION 1..6: note = epitope) [compound 1814]
- epitope sequence binding to IgE antibody, rank (Key/Preferably/More preferably) (serum of patient P27 (WDEIA)): Key

Substance: 1341 (NRRALR; REGION 1..6: note = epitope) [compound 1341]
- Epitope sequence binding to IgE antibody, rank of the sequence [5]: Key

Substance: 1788 (LKKVGYNP; REGION 1..8: note = epitope) [compound 1788]
- epitope sequence binding to IgE antibody, rank (Key/Preferably/More preferably) (serum of patient G9 (adult, general immediate type allergy to wheat)): Key

Substance: 1248 (PQQPP; REGION 1..5: note = epitope) [compound 1248]
- Epitope sequence binding to IgE antibody, rank of the sequence [5]: Key

Substance: 2646 (KEAAEMN; REGION 1..7: note = epitope) [compound 2646]
- Epitope sequence binding to IgE antibody, rank of the sequence (serum of patient P22 (WDEIA), partial sequence): Key

Substance: 1802 (SGKELEALPK; REGION 1..10: note = epitope) [compound 1802]
- epitope sequence binding to IgE antibody, rank (Key/Preferably/More preferably) (serum of patient P18 (WDEIA)): Preferably

Substance: 1800 (KELEALPK; REGION 1..8: note = epitope) [compound 1800]
- epitope sequence binding to IgE antibody, rank (Key/Preferably/More preferably) (serum of patient P17 (WDEIA)): Key

Substance: 2637 (KEAAEM; REGION 1..6: note = epitope) [compound 2637]
- Epitope sequence binding to IgE antibody, rank of the sequence [3]: Preferably

Substance: 2393 (PHDIDRCAYV; REGION 1..10: note = epitope) [compound 2393]
- Epitope sequence binding to IgE antibody, rank of the sequence (Key/Preferably/More preferably) [6]: Preferably

Substance: 1241 (PIQQQP; REGION 1..6: note = epitope) [compound 1241]
- Epitope sequence binding to IgE antibody, rank of the sequence (serum of patient P26 (WDEIA), sequence without X): Key

Substance: 1740 (KEAANF; REGION 1..6: note = epitope) [compound 1740]
- epitope sequence binding to IgE antibody, rank (Key/Preferably/More preferably) (serum of patient G1 (adult, general immediate type allergy to wheat)): Key

Substance: 2698 (KGPTL; REGION 1..5: note = epitope) [compound 2698]
- Epitope sequence binding to IgE antibody, rank of the sequence [7]: Key

Substance: 1375 (PWQQQPL; REGION 1..7: note = epitope) [compound 1375]
- Epitope sequence binding to IgE antibody, rank of the sequence (serum of patient P7 (WDEIA), sequence without X): Key

Substance: 1891 (YTVRTL; REGION 1..6: note = epitope) [compound 1891]
- epitope sequence binding to IgE antibody, rank (Key/Preferably/More preferably) (serum of patient G7 (adult, general immediate type allergy to wheat)): Key

Substance: 2592 (YQLVQQ; REGION 1..6: note = epitope) [compound 2592]
- Epitope sequence binding to IgE antibody, rank of the sequence (serum of patient P35 (WDEIA), partial sequence): Preferably

Substance: 1856 (YTVRTLQRT; REGION 1..9: note = epitope) [compound 1856]
- epitope sequence binding to IgE antibody, rank (Key/Preferably/More preferably) (serum of patient P18 (WDEIA)): More preferably

Substance: 2240 (IRNYRVAI; REGION 1..8: note = epitope) [compound 2240]
- Epitope sequence binding to IgE antibody, rank of the sequence (Key/Preferably/More preferably) [5]: Key

Substance: 2220 (NYRV; REGION 1..4: note = epitope) [compound 2220]
- Epitope sequence binding to IgE antibody, rank of the sequence (Key/Preferably/More preferably) (serum of patient P2 (WDEIA), sequence without X): Key

Substance: 1653 (YNPDKVPFV; REGION 1..9: note = epitope) [compound 1653]
- Rank of partial sequence as epitope binding to IgE antibody (serum of patient P51 (child, general immediate type allergy to wheat), sequence without X): Preferably

Substance: 1858 (RTLQ; REGION 1..4: note = epitope) [compound 1858]
- epitope sequence binding to IgE antibody, rank (Key/Preferably/More preferably) (serum of patient P18 (WDEIA)): Key

Substance: 2327 (RYDAIRAII; REGION 1..9: note = epitope) [compound 2327]
- Epitope sequence binding to IgE antibody, rank of the sequence (Key/Preferably/More preferably) [6]: Key

Substance: 2274 (DKRVIERFEK; REGION 1..10: note = epitope) [compound 2274]
- Epitope sequence binding to IgE antibody, rank of the sequence (Key/Preferably/More preferably) (serum of patient P8 (WDEIA), sequence without X): Preferably

Substance: 2541 (SSQVSFQPSQ; REGION 1..10: note = epitope) [compound 2541]
- Epitope sequence binding to IgE antibody, rank of the sequence [7]: Preferably

Substance: 1353 (NVEN; REGION 1..4: note = epitope) [compound 1353]
- Epitope sequence binding to IgE antibody, rank of the sequence [4]: Key

Substance: 1637 (YNPDKVPF; REGION 1..8: note = epitope) [compound 1637]
- Rank of partial sequence as epitope binding to IgE antibody [2]: Key
